{"source": "patent US20110311591A1", "about": "“Antimicrobial Coating” (SHEFFIELD HALLAM UNIVERSITY, priority 2008, published 2011)", "format_in_all_cases": "cell-based", "key": {"[1]": {"test_system": "coagulase negative Staphylococcus epidermis", "experiment": "Growth on agar/gentamicin plate (resistance check)", "settings": "50 μg per ml", "experimental": "(§1) Each of the bacterium where grown on a nutrient agar plate and an agar/gentamicin plate at a concentration of 50 μg per ml. This ensured the bacterial strains used where not resistant to gentamicin. One colony from the bacteria agar plate was used to inoculate a sterilized L-broth of 1% tryptone, 0.5% yeast extract, 0.5% NaCl, 0.2% glucose and left over night in a shaking incubator at 37° C."}, "Staphylococcus aureus": {"test_system": "Staphylococcus aureus", "experiment": "Growth on agar/gentamicin plate (resistance check)", "settings": "50 μg per ml", "experimental": "as §1"}, "[2]": {"test_system": "Escherichia coli (W3110, k 12 mutant)", "experiment": "Growth on agar/gentamicin plate (resistance check)", "settings": "50 μg per ml", "experimental": "as §1"}, "bacteria": {"test_system": "bacteria", "experiment": "Viable count on high temperature (80° C.) dried coating", "settings": "coat dried at 80° C.", "experimental": "The substrate was a standard glass microscope slide sterilized in an autoclave. Three different coatings were tested i) a pure sol-gel coating was used for a control, ii) a 5 mg/ml gentamicin solution mixed with sol-gel to form a 50 μg/ml coating (50 ppm) and a iii) 12.5 mg/ml concentration of gentamicin was made from gentamicin sulphate dissolved directly in the sol-gel to provide a 1.25% gentamicin sol-gel coating. Each coating was applied over the microscope slide using 200 μl of coating per plate, covered in one single coat and left for 24 hrs at room temperature to allow the coat to cure. Four plates were dried at 80° C. for 1 hr achieving a harder coat to determine if the gentamicin coat was still active after high temperature treatment.\nTo infect the plates with bacteria, a “sloppy agar” was made up from 0.7 g of nutrient agar dissolved in 100 ml of Phosphate buffer saline (PBS) and autoclaved forming a jelly like consistency. After melting, 5 ml of a inoculate L-broth was pipetted in to 100 ml of sloppy agar and mixed with 500 μl of this inoculated agar to be pipetted on to a coated plate forming a drop sitting on top of the coat. The plate was then laid flat into a Petri dish which was then placed in to a sealed, airtight, container with damp tissue paper to keep the sloppy agar in a moist environment to prevent drying out. […]"}}}
{"substance": "gentamicin", "values": [{"measurement": "susceptibility to gentamicin", "setting": "[1]", "result": "susceptible"}, {"measurement": "susceptibility to gentamicin", "setting": "Staphylococcus aureus", "result": "susceptible"}, {"measurement": "susceptibility to gentamicin", "setting": "[2]", "result": "susceptible"}, {"measurement": "gentamicin activity and release after high temperature drying of the coat", "setting": "bacteria", "result": "still active and released"}]}
